Data taken from article PMC5011342, “A high throughput drug screening assay to identify compounds that promote oligodendrocyte differentiation using acutely dissociated and purified oligodendrocyte precursor cells” (BMC Research Notes, 2016).
Where two headings read alike, the source gives them in different places.

Legend:
expanded OPCs = assay: cells; details: for viability at 0.1 µM / viability at 1 µM / viability at 10 µM: Rattus norvegicus, 72 h; for 0.1 µM (% DMSO) / 1 µM (% DMSO) / 10 µM (% DMSO): alamarBlue viability of expanded OPCs, relative to DMSO control; for 0.1 µM (% DMSO): compound at 0.1 µM; for 1 µM (% DMSO): compound at 1 µM; for 10 µM (% DMSO): compound at 10 µM
Method in brief: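 Toxicity screen: compounds added at 0.1, 1 and 10 µM to PDGF-AA-expanded OPCs in 96-well plates, 3-day incubation at 37 °C, 10% CO2, then alamarBlue 1:10 for 4 h with fluorescence readout. Results set screening doses of 10/2, 2/0.4 or 0.4/0.08 µM.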

[1] = tested on: acutely dissociated and purified rat OPCs; assay: Acute OL differentiation assay (MBP expression/cell, immunofluorescent image quantification); assay type: cell-based; details: Rattus norvegicus, sheet "All OLga data"; for activation at 0.4 µM: 0.4 uM test compound, read-out: OL differentiation, 0.4 uM (% Quet)
Method in brief: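 This acute differentiation assay used purified rat OPCs from postnatal day 6–7 pups, seeded into PDL/laminin-coated 96-well plates in differentiation medium lacking PDGF and FGF. Compounds were applied in quadruplicate after a 1–2 h preincubation at 37 °C, 10 % CO2, with 0.1 % DMSO negative and 40 ng/ml T3 positive controls in eight wells. After fixation on DIV4, anti-MBP immunofluorescence images yielded MBP expression/cell.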

[2] = read-out: 0.1 µM (% DMSO), alamarBlue viability of expanded OPCs, compound at 0.1 µM, sheet All Tox data
[3] = read-out: 1 µM (% DMSO), alamarBlue viability of expanded OPCs, compound at 1 µM, sheet All Tox data
[4] = read-out: 10 µM (% DMSO), alamarBlue viability of expanded OPCs, compound at 10 µM, sheet All Tox data
[5] = 2 uM test compound, relative to quetiapine, read-out: OL differentiation, 2 uM (% Quet)
[6] = 10 uM test compound, relative to quetiapine, read-out: OL differentiation, 10 uM (% Quet)
[7] = read-out: 0.1 µM (% DMSO), alamarBlue viability, NCC library compound at 0.1 µM, sheet "All Tox data"
[8] = read-out: 1 µM (% DMSO), alamarBlue viability, NCC library compound at 1 µM, sheet "All Tox data"
[9] = read-out: 10 µM (% DMSO), alamarBlue viability, NCC library compound at 10 µM, sheet "All Tox data"
[10] = test compound at 2 uM, NCC library screen, relative to quetiapine, read-out: 2 uM (% Quet)
[11] = test compound at 10 uM, NCC library screen, relative to quetiapine, read-out: 10 uM (% Quet)
[12] = test compound at 2 uM, MBP expression relative to quetiapine, NCC library screen, read-out: 2 uM (% Quet)
[13] = test compound at 10 uM, MBP expression relative to quetiapine, NCC library screen, read-out: 10 uM (% Quet)

| Compound | viability at 0.1 µM (expanded OPCs; [2]) [%] | viability at 1 µM (expanded OPCs; [3]) [%] | viability at 10 µM (expanded OPCs; [4]) [%] | activation at 2 µM [1, 5] [%] | activation at 10 µM [1, 6] [%] | viability at 0.1 µM (expanded OPCs; [7]) [%] | viability at 1 µM (expanded OPCs; [8]) [%] | viability at 10 µM (expanded OPCs; [9]) [%] | activation at 2 µM [1, 10] [%] | activation at 10 µM [1, 11] [%] | also measured |
| --- | --- | --- | --- | --- | --- | --- | --- | --- | --- | --- | --- |
| Nc1c2c(nc3ccccc13)CCCC2 [Tacrine] | 80.5 | 80 | 77.8 | -10.2 | 2.8 | – | – | – | – | – | – |
| C=CC[C@@H]1/C=C(\C)C[C@H](C)C[C@H](OC)[C@H]2O[C@@](O)(C(=O)C(=O)N3CCCC[C@H]3C(=O)O[C@H](/C(C)=C/[C@@H]3CC[C@@H](O)[C@H](OC)C3)[C@H](C)[C@@H](O)CC1=O)[C@H](C)C[C@@H]2OC [Tacrolimus] | 94.6 | 102 | 109 | -39.9 | -53.9 | – | – | – | – | – | – |
| CN1CC(=O)N2[C@H](c3ccc4c(c3)OCO4)c3[nH]c4ccccc4c3C[C@@H]2C1=O [Tadalafil] | 99.2 | 93 | 93.9 | 21.4 | -16 | – | – | – | – | – | – |
| O=C1c2c(O)cc(O)cc2OC(c2ccc(O)c(O)c2)C1O (centres unmarked) [Taxifolin] | 96.4 | 93.7 | 88.7 | -1.7 | -59 | – | – | – | – | – | – |
| O=c1[nH]c(=O)n(C2CCCO2)cc1F (centres unmarked) [Tegafur] | 88.4 | 92.6 | 99.3 | -23.9 | -28 | – | – | – | – | – | – |
| [H]/N=C(/NCCCCC)N/N=C/c1c[nH]c2ccc(OC)cc12 [Tegaserod] | – | – | – | – | – | 88.5 | 33.1 | 11.5 | – | – | activation at 0.08 µM ([1]; 0.08 uM test compound, relative to quetiapine, read-out: OL differentiation, 0.08 uM (% Quet)): -15.2%; activation at 0.4 µM ([1]; relative to quetiapine): -63.1% |
| CC[C@H]1OC(=O)[C@H](C)C(=O)[C@H](C)[C@@H](O[C@@H]2O[C@H](C)C[C@H](N(C)C)[C@H]2O)[C@](C)(OC)C[C@@H](C)C(=O)[C@H](C)[C@H]2N(CCCCn3cnc(-c4cccnc4)c3)C(=O)O[C@]12C [Telithromycin] | – | – | – | – | – | 98.4 | 105 | 94 | 17.7 | 10.4 | – |
| CCCc1nc2c(C)cc(-c3nc4ccccc4n3C)cc2n1Cc1ccc(-c2ccccc2C(=O)O)cc1 [Telmisartan] | – | – | – | – | – | 95.6 | 82.3 | 53.3 | -6.1 | -61.8 | – |
| Cn1nnc2c(C(N)=O)ncn2c1=O [Temozolomide] | 105 | 94.7 | 100 | -10.2 | -8.5 | – | – | – | – | – | – |
| COc1cc2nc(N3CCN(C(=O)C4CCCO4)CC3)nc(N)c2cc1OC (centres unmarked) [Terazosin] | 81.1 | 80.8 | 78.7 | -2.4 | 8.7 | – | – | – | – | – | 0.1 µM (% DMSO) (expanded OPCs): 93.3 % DMSO; 1 µM (% DMSO) (expanded OPCs): 94.6 % DMSO; 10 µM (% DMSO) (expanded OPCs): 74.1 % DMSO; activation at 2 µM [1, 12]: -10.8%; activation at 10 µM [1, 13]: -37.2% |
| CN(C/C=C/C#CC(C)(C)C)Cc1cccc2ccccc12 [Terbinafine] | – | – | – | -91.1 | – | 90.5 | 92.2 | 11 | – | – | activation at 0.4 µM ([1]; relative to quetiapine): -31.1% |
| CC(C)(C)NCC(O)c1cc(O)cc(O)c1 (centres unmarked) [Terbutaline] | – | – | – | – | – | – | – | – | – | – | 0.1 µM (% DMSO) (expanded OPCs): 91.9 % DMSO; 1 µM (% DMSO) (expanded OPCs): 95.2 % DMSO; 10 µM (% DMSO) (expanded OPCs): 89.9 % DMSO; activation at 2 µM [1, 12]: 8.9%; activation at 10 µM [1, 13]: 12.1% |
| O=C1CCC(N2C(=O)c3ccccc3C2=O)C(=O)N1 (centres unmarked) [Thalidomide] | – | – | – | – | – | 110 | 92.4 | 99.3 | -9.1 | -26.7 | – |
| Cn1c(=O)c2[nH]cnc2n(C)c1=O [Theophylline] | – | – | – | – | – | – | – | – | -12 | 6.9 | 0.1 µM (% DMSO) (expanded OPCs): 91.7 % DMSO; 1 µM (% DMSO) (expanded OPCs): 95.8 % DMSO; 10 µM (% DMSO) (expanded OPCs): 88.9 % DMSO |
| c1ccc2[nH]c(-c3cscn3)nc2c1 [Thiabendazole] | – | – | – | – | – | 98 | 97.1 | 109 | 14.9 | 36.7 | – |
